US6635242B2, “Broad spectrum microbicidal and spermicidal compositions, devices, and methods” (The Pennsylvania State University, priority 1998, dated 2003)

What was measured:
BPV-1 = BPV-1 focus assay in C127 mouse cells; format: cell-based, bovine papillomavirus; settings: bovine papillomavirus
Description: Cell-free stocks of BPV-1 were prepared by extraction (10% w/v) of epidermal bovine warts in phosphate buffered saline (PBS). In order to detect the transforming ability of BPV-1, C127 mouse cells were seeded (3×10^5 cells per flask) into T-25^2 flasks. After 24 hr of growth, subconfluent cells were infected with BPV-1. For the positive controls, stock virus (20 μl) was diluted (1:1) with PBS, incubated at 37° C. for 10 min, diluted […] and then added (100 μl ) into the 5 ml of cell culture medium present on the cells. Cells were refed at 24 hours and subsequently 2 times weekly. The presence of morphologically transformed foci was counted after 2 weeks and then again at 3 weeks.
Virus inactivations were carried out in vitro by addition of concentrated SDS solutions to the virus stocks (20 μl of virus plus 20 μl of detergent) and subsequent incubation at 37° C. for 10 or 30 min as indicated. Following inactivation, virus was diluted 1000 fold to lower the detergent concentration and the preparations were immediately used for infection as above.
Although SDS could effectively reduce HSV-2 infectivity, it remained possible that this destruction was mediated by envelope removal. Because papillomaviruses are non-enveloped, the possibility remained that SDS would fail to inactivate these viruses. We utilized BPV-1 as a prototype PV because of its ability to rapidly (within 2 weeks) form multi-layered transformed foci in mouse fibroblasts in an in vitro assay. Table 3 describes results of two separate experiments in which stocks of BPV-1 were incubated at 37° C. with various concentrations of SDS (5% to 5×10^−4%) for either 10 or 30 minutes, diluted to lower the SDS concentration (to avoid cell toxicity) and then used to infect C127 cells. […] Table 4 lists several other commercially available detergents that were tested for possible inactivation of BPV-1. None of these detergents inactivated the morphologic transforming properties of the BPV-1.

[1] = system: HIV-1-infected SupT1 cells; assay: Cell-associated HIV-1 infectivity (FIG. 6); format: cell-based, human immunodeficiency virus; settings: 10 min at 37° C., co-culture with HCLB cells, FIG. 6(a)
Description: (A) SupT1 T lymphocytes (8×10^4)infected 5 days prior with HIV-1 strain IIIB were pelleted and resuspended in new media to remove cell-free virus. After exposure to selected concentrations of each microbicide for 10 min at 37° C., the cells were diluted 1:10 and co-cultured with HCLB cells for 2 h. Following one wash with PBS to remove the infected lymphocytes, the indicator cells were cultured and assayed. Infectivity following exposure is expressed as a percentage relative to the number of β-gal-positive cells in duplicate wells infected with HIV-1 infected SupT1 cells incubated in the absence of a microbicidal compound. Results shown in FIG. 6(a) are the average cell counts for a total of four wells per concentration in two independent experiments. (B) SupT1 T lymphocytes (8×10^4) were incubated with selected concentrations of each microbicide for 10 min at 37° C., and then diluted 1:10 with new media. Following a 2 h incubation period, the cells were assessed for viability. Cell survival after treatment is expressed as the fraction of viable cells relative to the number of mock-exposed cells. Results shown in FIG. 6(b) are the average of two experiments in which triplicate wells for each concentration were assayed.

[2] = system: lymphocyte-, macrophage- and dual-tropic strains of HIV-1 (IIIB, BaL, 89.6); assay: Cell-free HIV-1 inactivation (FIG. 5); format: cell-based, human immunodeficiency virus; settings: HCLB or P4-R5 indicator cells
Description: Cell-free HIV-1 strain IIIB (A) was treated with N-9, C31G, or SDS, and used to infect HCLB cells. Cell-free HIV-1 strains BaL (M tropic) (B) and 89.6 (dual tropic) (C) were treated with N-9, C31G or SDS,and used to infect P4-R5 cells. Assays were conducted. Infectivity following exposure is expressed as a percentage relative to the number of β-gal-positive cells in duplicate wells infected with virus incubated in the absence of a microbicidal compound. Results shown in FIG. 5 are the average cell counts for a total of four wells per concentration in two independent experiments.

CRPV = format: in vivo, cottontail rabbit papillomavirus; settings: 10^−2 dilution of CRPV stock, 0.05% N-9, 37° C. 10 min; 10 sites each, 3-6 weeks
Bovine sperm = Bovine sperm motility following detergent addition; format: cell-based; parameters: key to Bovine Sperm Motility Following Detergent Addition: +++: Vigorous swimming; ++/−: Many swimmers/some dead; +/−: Occasional swimmer/most dead; −: All dead
Source text: The following data represent an in vitro experiment to test the efficacy of SDS and other detergents as spermicidal agents. Frozen samples of bull semen were obtained, thawed and placed in a test tube. Aliquots were taken out and put in a separate test tube where they were mixed with detergent (SDS, C31G, N-9 or a mixture of SDS and N-9) to a final percent as listed in Tables 8 and 9 below. After mixing, the samples were immediately placed on a microscope slide and visually examined for sperm movement. The experiment was conducted one sample at a time so that the visual examination was conducted immediately after addition of detergent to the sample. As a result, indications in the table of complete inactivation indicate virtually instantaneous inactivation of the sperm. […] Occasional swimmers means very few, on the order of approximately 1% of the population of sperm present in the sample, indicating approximately 99% of the sperm were inactivated by the detergent.

## CCCCCCCCCCCCOS(=O)(=O)[O-].[Li+] [LDS, lithium dodecyl sulfate]
BPV-1
  anti-papillomavirus activity in the C127 focus assay: have anti-papillomavirus activity

## CCCCCCCCCCCC(=O)O [Lauric Acid, lauric acid]
BPV-1
  anti-papillomavirus activity in the C127 focus assay: have anti-papillomavirus activity

## Nonoxynol-9 [N-9, reference compound]
[1]
  cell-associated infectivity of HIV-1-infected SupT1 cells: can reduce the cell-associated infectivity
[2]
  inactivation of cell-free HIV-1 strains IIIB, BaL and 89.6 (infectivity, β-gal-positive cells): inactivated
CRPV
  growth of papillomas (GMD) from treated versus normal CRPV (FIG. 2b): not a difference in the growth of the lesions
Bovine sperm; Table 8, 0.0125% detergent
  Bovine Sperm Motility Following Detergent Addition: +++
Bovine sperm; Table 8, 0.025% detergent
  Bovine Sperm Motility Following Detergent Addition: −
Bovine sperm; Table 8, 0.5% detergent
  Bovine Sperm Motility Following Detergent Addition: −
Bovine sperm; Table 8, 1% detergent
  Bovine Sperm Motility Following Detergent Addition: −
Bovine sperm; Table 8, 2% detergent
  Bovine Sperm Motility Following Detergent Addition: −
Bovine sperm; Table 9, 0.125% detergent
  Bovine Sperm Motility Following Detergent Addition: +++
Bovine sperm; Table 9, 0.25% detergent
  Bovine Sperm Motility Following Detergent Addition: +++
Bovine sperm; Table 9, 0.5% detergent
  Bovine Sperm Motility Following Detergent Addition: +++
Bovine sperm; Table 9, 1% detergent
  Bovine Sperm Motility Following Detergent Addition: ++/−
Bovine sperm; Table 9, 2% detergent
  Bovine Sperm Motility Following Detergent Addition: −

## CCCCCCCCCCCC(=O)[O-].[Na+] [NA+ Lauric Acid, sodium salt of lauric acid]
BPV-1
  anti-papillomavirus activity in the C127 focus assay: have anti-papillomavirus activity
